The values that follow come from PubChem BioAssay (NCI).

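Method: 48-hour compound exposure of cells in 96-well plates, five concentrations, linear interpolation of endpoints. TGI: concentration producing complete growth inhibition.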

Test systems include K-562 leukemia; EKVX NSCLC; SK-OV-3 ovarian; U251 CNS; SK-MEL-5 melanoma; HCT-116 colon; UACC-62 melanoma; SNB-19 CNS; PC-3 prostate; NCI-H226 lung.
Common to all, as to experiment: growth of human tumour cells (NCI), 48 h

`CC1Cc2c(cc(N)nc2Br)NC1=O` (stereo not given): the TGI with K-562 leukemia, with EKVX NSCLC, with SK-OV-3 ovarian, in the assay on U251 CNS, with SK-MEL-5 melanoma and in the assay on HCT-116 colon was greater than 100 µM each time. Besides, the TGI with UACC-62 melanoma, with SNB-19 CNS, with PC-3 prostate and in the assay on NCI-H226 lung was greater than 100 µM in each case.
For `c1cc2c3c(c1)[C@@H]1O[C@@H]1c1cccc(c1-3)[C@@H]1O[C@H]21`, the TGI in the assay with K-562 leukemia was greater than 100 µM; in the assay with EKVX NSCLC it was 34.4 µM; in the assay on SK-OV-3 ovarian, greater than 100 µM; with U251 CNS, 33 µM; in the assay with SK-MEL-5 melanoma, 35.6 µM; in the assay with HCT-116 colon, 38.5 µM. The TGI in the assay with UACC-62 melanoma is 33.3 µM; in the assay with SNB-19 CNS, greater than 100 µM; in the assay with PC-3 prostate, 51.9 µM; with NCI-H226 lung it was greater than 100 µM.
In the case of `CCn1c(O)c(C(=O)NC(C)c2ccc([N+](=O)[O-])cc2)c(=O)n(CC)c1=S` (stereo not given), the TGI with K-562 leukemia was 3.6 µM; in the assay on EKVX NSCLC, 12.7 µM; in the assay on SK-OV-3 ovarian it was 7.38 µM; in the assay with U251 CNS, 13.1 µM; in the assay on SK-MEL-5 melanoma, 11.3 µM; in the assay with HCT-116 colon it was 4.45 µM. The TGI stood at 5.8 µM in the assay on UACC-62 melanoma, 10.8 µM with SNB-19 CNS, 10.2 µM in the assay on PC-3 prostate and 11.9 µM in the assay on NCI-H226 lung.
With `COc1ccc(OC)c(-c2cn3c(n2)sc2ccccc23)c1`, the TGI with K-562 leukemia, in the assay with EKVX NSCLC, with SK-OV-3 ovarian, with U251 CNS, in the assay with SK-MEL-5 melanoma and with HCT-116 colon was greater than 100 µM throughout. Moreover, the TGI with UACC-62 melanoma, with SNB-19 CNS, in the assay on PC-3 prostate and in the assay with NCI-H226 lung was greater than 100 µM each time.
As to `CCOC(=O)COC1=Nc2cc(OC)c(OC)c3nc(Cl)cc(c23)C1=O`, the TGI amounted to 7.2 µM with K-562 leukemia; 1.83 µM in the assay with EKVX NSCLC; 24.1 µM in the assay on SK-OV-3 ovarian; 8.49 µM in the assay on U251 CNS; 3.53 µM with SK-MEL-5 melanoma; 3.1 µM in the assay with HCT-116 colon. For the same molecule, the TGI in the assay with UACC-62 melanoma was determined as 3.17 µM; with SNB-19 CNS, 22.1 µM; in the assay with PC-3 prostate, 3.45 µM; with NCI-H226 lung, 28.6 µM.
In the case of `Oc1ccc(O)c(Sc2nnc(CCCCCCCCc3nnc(Sc4cc(O)ccc4O)o3)o2)c1`, the TGI in the assay with K-562 leukemia is greater than 100 µM; in the assay with EKVX NSCLC, greater than 100 µM; with SK-OV-3 ovarian, greater than 100 µM; with U251 CNS, greater than 100 µM; in the assay on SK-MEL-5 melanoma, greater than 100 µM; in the assay with HCT-116 colon, 32.5 µM. In addition, the TGI in the assay with UACC-62 melanoma, with SNB-19 CNS, with PC-3 prostate and in the assay with NCI-H226 lung was greater than 100 µM each time.
In the case of `O=C(O)c1cc(Nc2c(O)c3c(c(O)c2Cl)C(=O)C=CC3=O)ccc1O`, the TGI in the assay with K-562 leukemia, in the assay with EKVX NSCLC, in the assay with SK-OV-3 ovarian, in the assay on U251 CNS, in the assay on SK-MEL-5 melanoma and in the assay with HCT-116 colon was greater than 10 µM each time. In addition, the TGI with UACC-62 melanoma, with SNB-19 CNS, with PC-3 prostate and in the assay with NCI-H226 lung was greater than 10 µM throughout.
For `O=C1/C(=C(/Br)I)c2ccccc2-c2ccccc21`, the TGI in the assay with K-562 leukemia turned out to be 7.24 µM; in the assay on EKVX NSCLC, 32.6 µM; in the assay on SK-OV-3 ovarian it was 29.8 µM; with U251 CNS it was 25.5 µM; in the assay on SK-MEL-5 melanoma, 31.1 µM; in the assay with HCT-116 colon it was 25.2 µM. Besides, the TGI in the assay with UACC-62 melanoma was 21.2 µM; in the assay with SNB-19 CNS, 27 µM; in the assay with PC-3 prostate it was 23.7 µM; in the assay with NCI-H226 lung, 35.4 µM.
In the case of `Cc1ccc(S(=O)(=O)CC2CCCn3c2c(C#N)c2ccccc23)cc1` (stereo not given), the TGI with K-562 leukemia, with EKVX NSCLC, in the assay on SK-OV-3 ovarian, in the assay on U251 CNS, with SK-MEL-5 melanoma and in the assay with HCT-116 colon was greater than 100 µM each time. The TGI in the assay with UACC-62 melanoma, in the assay with SNB-19 CNS, in the assay with PC-3 prostate and with NCI-H226 lung was greater than 100 µM in each case.
Consider `O=c1[nH]nc(N/N=C\c2ccc(Cl)cc2)c2ccccc12`, for which the TGI with K-562 leukemia was 81.1 µM; in the assay on EKVX NSCLC, greater than 100 µM; with SK-OV-3 ovarian, 34.6 µM; in the assay with U251 CNS it was 38.2 µM; in the assay with SK-MEL-5 melanoma it was 39.3 µM; in the assay with HCT-116 colon, 53.2 µM. The TGI in the assay on UACC-62 melanoma amounted to 39.4 µM; with SNB-19 CNS, 43.1 µM; in the assay on PC-3 prostate it was 40.2 µM; with NCI-H226 lung, 57.4 µM.
In the case of `CC(=O)NCC1OC2COC(c3ccccc3)OC2C2N=C(c3ccccc3)OC12` (stereo not given), the TGI in the assay with K-562 leukemia, with EKVX NSCLC, with SK-OV-3 ovarian, in the assay with U251 CNS, in the assay on SK-MEL-5 melanoma and in the assay with HCT-116 colon was greater than 100 µM throughout. The TGI in the assay on UACC-62 melanoma, in the assay with SNB-19 CNS, with PC-3 prostate and in the assay on NCI-H226 lung was greater than 100 µM each time.
For the molecule `CC(C)CCCC(C)[C@H]1CC[C@H]2NCCCC[C@]12C` (stereo not given in full), the TGI was 6.61 µM in the assay on K-562 leukemia; 5.23 µM with EKVX NSCLC; 28.4 µM in the assay on SK-OV-3 ovarian; 5.88 µM in the assay on U251 CNS; 3.39 µM in the assay on SK-MEL-5 melanoma; 20 µM with HCT-116 colon. Further, the TGI with UACC-62 melanoma came out at 3.91 µM; with SNB-19 CNS, 17.9 µM; with PC-3 prostate, 10.4 µM; in the assay on NCI-H226 lung, 29 µM.
Regarding `C/C(=C\COP(=O)(O)OP(=O)(O)O)CC/C=C(\C)CNc1ccccc1`, the TGI in the assay on K-562 leukemia, with EKVX NSCLC, with SK-OV-3 ovarian, with U251 CNS, in the assay on SK-MEL-5 melanoma and in the assay with HCT-116 colon was greater than 50 µM throughout. Moreover, the TGI with UACC-62 melanoma, in the assay on SNB-19 CNS, in the assay on PC-3 prostate and with NCI-H226 lung was greater than 50 µM each time.
As to `CCCC(CC)c1cc(O)c(O)cc1C(CC)CCC` (stereo not given), the TGI in the assay on K-562 leukemia, with EKVX NSCLC, in the assay on SK-OV-3 ovarian, in the assay with U251 CNS, with SK-MEL-5 melanoma and in the assay with HCT-116 colon was greater than 10 µM in each case. The TGI with UACC-62 melanoma, in the assay with SNB-19 CNS, in the assay on PC-3 prostate and in the assay on NCI-H226 lung was greater than 10 µM throughout.
In the case of `COc1ccc(C(=O)/C=C/c2ccc(OCCCOc3ccc(/C=C/C(=O)c4ccc(OC)c(OC)c4)cc3)cc2)cc1OC`, the TGI in the assay with K-562 leukemia, with EKVX NSCLC, in the assay on SK-OV-3 ovarian, in the assay with U251 CNS, in the assay with SK-MEL-5 melanoma and in the assay on HCT-116 colon was greater than 100 µM throughout. The TGI in the assay with UACC-62 melanoma, in the assay on SNB-19 CNS, in the assay with PC-3 prostate and in the assay with NCI-H226 lung was greater than 100 µM each time.
For the molecule `O=C1c2ccccc2C2(c3ccc(Cl)cc3)N[C@@H]3CCCC[C@@H]3N12` (stereo not given in full), the TGI in the assay with K-562 leukemia, in the assay on EKVX NSCLC, in the assay on SK-OV-3 ovarian, in the assay on U251 CNS, in the assay with SK-MEL-5 melanoma and in the assay on HCT-116 colon was greater than 100 µM each time. The TGI with UACC-62 melanoma, with SNB-19 CNS, with PC-3 prostate and with NCI-H226 lung was greater than 100 µM in each case.
`Cc1cc2nc3c(N)nn(CCN(C)C)c3nc2cc1C`: the TGI in the assay with K-562 leukemia, in the assay on EKVX NSCLC, in the assay with SK-OV-3 ovarian, in the assay on U251 CNS, with SK-MEL-5 melanoma and in the assay with HCT-116 colon was greater than 100 µM each time. For the same molecule, the TGI in the assay with UACC-62 melanoma was greater than 100 µM; with SNB-19 CNS it was greater than 100 µM; in the assay on PC-3 prostate it was greater than 100 µM; in the assay on NCI-H226 lung it was 79.4 µM.
In the case of `Cc1ccc(C(=O)NN=C(/N=N/c2cccc(C)c2)c2ccc(N(C)C)cc2)cc1`, the TGI in the assay on K-562 leukemia, with EKVX NSCLC, in the assay on SK-OV-3 ovarian, in the assay with U251 CNS, with SK-MEL-5 melanoma and in the assay with HCT-116 colon was greater than 100 µM throughout. In addition, the TGI with UACC-62 melanoma, with SNB-19 CNS, in the assay with PC-3 prostate and with NCI-H226 lung was greater than 100 µM each time.
As for `O=C1/C(=C/C=C/c2ccccc2)CCC1CNc1ccc(Br)cc1` (stereo not given), the TGI in the assay on K-562 leukemia, in the assay with EKVX NSCLC, in the assay with SK-OV-3 ovarian, in the assay with U251 CNS, with SK-MEL-5 melanoma and with HCT-116 colon was greater than 100 µM in each case. The TGI in the assay with UACC-62 melanoma, in the assay with SNB-19 CNS, in the assay with PC-3 prostate and in the assay with NCI-H226 lung was greater than 100 µM in each case.
With `CN1C(=O)C(CCO)(C(C)(C)C)c2ccccc21` (stereo not given), the TGI in the assay on K-562 leukemia, in the assay on EKVX NSCLC, in the assay with SK-OV-3 ovarian, in the assay on U251 CNS, with SK-MEL-5 melanoma and in the assay with HCT-116 colon was greater than 100 µM each time. Besides, the TGI with UACC-62 melanoma, with SNB-19 CNS, in the assay with PC-3 prostate and with NCI-H226 lung was greater than 100 µM each time.
With `Cc1ccc(C2(N3CCOCC3)OC(C)(C)c3cccc4cccc2c34)cc1` (stereo not given), the TGI in the assay on K-562 leukemia is greater than 100 µM; in the assay on EKVX NSCLC, 29.2 µM; with SK-OV-3 ovarian, 31.2 µM; in the assay with U251 CNS it was 30.7 µM; with SK-MEL-5 melanoma, 35.1 µM; in the assay on HCT-116 colon, 36.9 µM. Also, the TGI in the assay with UACC-62 melanoma worked out at 27.8 µM; in the assay on SNB-19 CNS it was 32.6 µM; in the assay with PC-3 prostate it was 34.2 µM; in the assay on NCI-H226 lung, 35.8 µM.
Take `COc1ccc(/C=N/N=C(\N)NO)c(OC)c1OC`: the TGI with K-562 leukemia was greater than 100 µM; with EKVX NSCLC, greater than 100 µM; with SK-OV-3 ovarian it was greater than 100 µM; with U251 CNS, greater than 100 µM; in the assay with SK-MEL-5 melanoma it was 72 µM; in the assay on HCT-116 colon, 75.5 µM. Besides, the TGI with UACC-62 melanoma is greater than 100 µM; with SNB-19 CNS it was greater than 100 µM; in the assay with PC-3 prostate it was greater than 100 µM; in the assay with NCI-H226 lung, 74.3 µM.
